Assay results reported in patent US9096951B2, “Method for producing second-generation library” (Nuevolution A/S, priority 2003, dated 2015).

Key:
Type in all cases: binding
[1] = molecular target: integrin aVβ3 (Homo sapiens, UniProt P05106+P06756); assay: Selection of the 700-member encoded library on immobilised integrin aVβ3, then PCR, cloning and sequencing of identifier codons; conditions: for Count (times the chemical entity's codon was seen after selection): 700-member library after selection, single building block at its position; for Count (times the chemical entity's codon was seen after selection) / share of sequences containing the chemical entity after selection: out of 51 sequences
Protocol: Maxisorp ELISA wells (NUNC A/S, Denmark) were coated with each 100 μL 2 μg/mL integrin aVβ3 in PBS buffer [2.8 mM NaH2PO4, 7.2 mM Na2HPO4, 0.15 M NaCl, pH 7.2] overnight at 4° C. Then the integrin solution was substituted for 200 μl blocking buffer [TBS, 0.05% Tween 20 (Sigma P-9416), 1% bovine serum alnumin (Sigma A-7030), 1 mM MnCl2] which was left on for 3 hours at room temperature. Then the wells were washed 10 times with blocking buffer and the encoded library was added to the wells after diluting it 100 times with blocking buffer. Following 2 hours incubation at room temperature the wells were washed 10 times with blocking buffer. After the final wash the wells were cleared of wash buffer and subsequently inverted and exposed to UV light at 300-350 nm for 30 seconds using a trans-illuminator set at 70% power. Then 100 μl blocking buffer without Tween-20 was immediately added to each well, the wells were shaken for 30 seconds, and the solutions containing eluted identifiers were removed for PCR amplification.
A TOPO-TA (Invitrogen) ligation reaction is assembled with 4 μl PCR product, 1 μl salt solution (Invitrogen) and 1 μl vector. Water is added to 6 μl. The reaction is then incubated at RT for 30 min. Heat-shock competent TOP10 E. coli cells are then thawed on ice and 5 μl of the ligation reaction is added to the thawed cells. The cells are then incubated 30 min on ice, heatshocked in 42° C. water for 30 sec, and then put on ice again. 250 μl of growth medium is added to the cells and they are incubated 1 h at 37° C. The medium containing cells is then spread on a growth plate containing 100 μg/ml ampicillin and incubated at 37° C. for 16 hours.
Individual E. coli clones are then picked and transferred to PCR wells containing 50 μl water. These 50 μl were incubated at 94° C. for 5 minutes and used in a 20 μl in a 25 μl PCR reaction with […] of each TOPO primer M13 forward & M13 reverse and Ready-To-Go PCR beads (Amersham Biosciences). The following PCR profile is used: 94° C. 2 min, then 30×(94° C. 4 sec, 50° C. 30 sec, 72° C. 1, min) then 72° C. 10 min. Primers and nucleotides are then degraded by adding 1 μl 1:1 EXO/SAP mixture (USB corp.) to 2 μl PCR product and incubating at 37° C. for 15 min and then 80° C. for 15 min to heat-inactivate the enzymes. […] T7 primer is added and water is added to 12 μl. Then 8 μl DYEnamic ET cycle sequencing Terminator Mix (Applied biosystems) is added to each well. A thermocycling profile of 30×(95° C. 20 sec, 50° C. 15 sec, 60° C. 1 min) is then run. Then 10 μl water is added to each well and sequencing reactions are purified using seq96 spinplates (Amersham Biosciences). Reactions are then run on a MegaBace capillary electrophoresis instrument (Molecular Dynamics) using injection parameters 2 kV, 50 sec and run parameters: 9 kV 45 min and analyzed using Contig Express software (Informax).
After the selection as described above, the codons in the identifier oligonucleotides were analysed. Before the analysis, the identifier oligonucleotides were amplified using the constant flanking regions and the amplified material was used in the identifier sequence analysis.

[2] = molecular target: T1, Integrin αvβ3 receptor (Homo sapiens, UniProt P05106+P06756); assay: Selection of Library 1 and Library 2 (61,875 members each) for binders of the Integrin αvβ3 receptor, then building block abundance analysis; conditions: value = library (1, 2) in which it was more abundant after selection; for More abundant in position 3 in library no.: building block chosen for Library 3 position 3; for More abundant in position 2 in library no.: building block chosen for Library 3 position 2
Text: The following scheme describes the split and mix assembly of the libraries: • i.) n times [BB1+Oligo1→BB1−Oligo1] in separate wells • Optionally purify product • ii.) mix all n wells into one tube • iii.) split product of ii.) into m separate wells • iv.) m times [BB2+BB1−Oligo1+Oligo2→BB2−BB1−Oligo1−Oligo2] in separate wells • Optionally purify product • v.) mix all m wells into one tube • vi.) split product of v.) into p separate wells • vii.) p times [BB3+BB2−BB1−Oligo1−Oligo2+Oligo3→BB3−BB2−BB1−Oligo1−Oligo2−Oligo3] in separate wells Optionally purify product • viii.) mix all p wells into one tube • ix.) Selection was performed and binders isolated • x.) PCR of DNA and sequencing • xi.) Analyse for building block abundancy and full sequence information
Building block abundances analysis may be done by QPCR or by sequencing full sequences and then analyzing for the abundance of individual building blocks.
Two libraries of 61,875 members (Library 1 and 2) were generated as described in example 6 above and selected for binders of the Integrin αvβ3 receptor separately. The libraries were generated with 99 different building blocks in position 1, 25 different building blocks in position 2 and 25 different building blocks in position 3.
(§1) The identified sequences were then analyzed for the abundances of building blocks at each position in the sequence. The most abundant building blocks at each position from the two libraries 1 and 2 were then used again to generate a new and smaller library of 1,365 members, which was selected for binders of the Integrin αvβ3 receptor. The library was generated with 7 different building blocks in position 1, 13 different building blocks in position 2 and 15 different building blocks in position 3.

[3] = molecular target: T1, Integrin αvβ3 receptor; assay: Selection of the second-generation library (Library 3, 1,365 members) for binders of the Integrin αvβ3 receptor, then sequencing of isolated identifiers; conditions: 31 analysed sequences
Protocol: as §1
A subset of the isolated sequences from the library post selection was analysed:
These sequences could be translated into the following building block compositions: […]

Chain of integrin aVβ3 (P06756 31-889 limits assumed): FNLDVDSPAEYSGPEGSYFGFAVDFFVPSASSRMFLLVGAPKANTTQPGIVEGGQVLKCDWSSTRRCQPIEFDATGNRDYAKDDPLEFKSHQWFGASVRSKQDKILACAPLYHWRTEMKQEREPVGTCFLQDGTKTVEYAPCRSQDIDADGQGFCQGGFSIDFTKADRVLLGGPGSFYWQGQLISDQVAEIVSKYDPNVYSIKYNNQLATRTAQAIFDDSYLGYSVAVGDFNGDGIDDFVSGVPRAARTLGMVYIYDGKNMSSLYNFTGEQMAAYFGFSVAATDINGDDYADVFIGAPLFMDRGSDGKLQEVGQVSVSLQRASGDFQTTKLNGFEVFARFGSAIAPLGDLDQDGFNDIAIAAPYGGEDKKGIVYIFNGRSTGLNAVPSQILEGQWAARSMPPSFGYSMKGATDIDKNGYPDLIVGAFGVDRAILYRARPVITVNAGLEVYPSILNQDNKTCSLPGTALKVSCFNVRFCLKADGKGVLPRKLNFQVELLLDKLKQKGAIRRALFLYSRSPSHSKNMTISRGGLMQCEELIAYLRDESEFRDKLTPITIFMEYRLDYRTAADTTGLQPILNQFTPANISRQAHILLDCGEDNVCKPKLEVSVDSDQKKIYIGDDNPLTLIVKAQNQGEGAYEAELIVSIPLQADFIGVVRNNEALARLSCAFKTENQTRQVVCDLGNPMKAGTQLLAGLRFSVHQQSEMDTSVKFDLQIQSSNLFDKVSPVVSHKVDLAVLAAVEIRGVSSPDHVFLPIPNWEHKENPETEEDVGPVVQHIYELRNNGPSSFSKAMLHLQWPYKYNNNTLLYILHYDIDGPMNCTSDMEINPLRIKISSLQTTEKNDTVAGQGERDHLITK
Chain of integrin aVβ3 (P06756 891-1048 partner limits assumed): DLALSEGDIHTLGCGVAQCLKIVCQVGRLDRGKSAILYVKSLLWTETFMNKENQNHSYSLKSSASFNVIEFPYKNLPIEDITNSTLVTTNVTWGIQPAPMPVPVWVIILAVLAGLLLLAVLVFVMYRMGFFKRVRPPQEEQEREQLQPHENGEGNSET
Chain of integrin aVβ3 (P05106 27-788): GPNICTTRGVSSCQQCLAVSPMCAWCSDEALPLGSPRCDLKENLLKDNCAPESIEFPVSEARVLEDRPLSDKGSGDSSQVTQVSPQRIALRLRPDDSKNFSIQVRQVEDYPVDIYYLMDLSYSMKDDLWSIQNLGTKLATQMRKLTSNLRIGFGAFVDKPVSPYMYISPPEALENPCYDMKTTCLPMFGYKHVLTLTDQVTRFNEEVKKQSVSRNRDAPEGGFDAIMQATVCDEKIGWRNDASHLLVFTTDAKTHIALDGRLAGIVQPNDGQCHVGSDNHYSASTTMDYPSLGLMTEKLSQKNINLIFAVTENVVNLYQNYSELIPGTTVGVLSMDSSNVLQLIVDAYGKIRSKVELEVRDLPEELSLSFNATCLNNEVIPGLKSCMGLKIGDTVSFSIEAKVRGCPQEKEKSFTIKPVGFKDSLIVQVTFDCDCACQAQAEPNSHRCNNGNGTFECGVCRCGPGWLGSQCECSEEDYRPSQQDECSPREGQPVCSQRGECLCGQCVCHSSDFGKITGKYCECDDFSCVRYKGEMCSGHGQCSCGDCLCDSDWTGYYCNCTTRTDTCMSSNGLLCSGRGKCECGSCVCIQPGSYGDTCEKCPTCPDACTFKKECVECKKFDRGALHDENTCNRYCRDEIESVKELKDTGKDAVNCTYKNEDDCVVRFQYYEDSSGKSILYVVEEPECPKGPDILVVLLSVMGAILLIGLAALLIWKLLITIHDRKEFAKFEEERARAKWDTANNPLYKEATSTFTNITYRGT
T1 sequence (P06756 31-889 limits assumed): as the sequence (P06756 31-889 limits assumed) above
T1 sequence (P06756 891-1048 partner limits assumed): as the sequence (P06756 891-1048 partner limits assumed) above
T1 sequence (P05106 27-788): as the sequence (P05106 27-788) above

Count (times the chemical entity's codon was seen after selection) [1]	SMILES	also measured
13	C=CCCC(=O)N1CC(C(=O)O)C1 [BBA0001582]	–
6	C=CCCC(=O)N1CCCC[C@@H]1C(=O)O [BBA0004242]	–
9	CC(CCC(=O)O)Nc1ccccn1 (stereo not shown) [BBA0001391]	More abundant in position 3 in library no. [2]: 2
4	O=C(O)CCCc1ccc2c(n1)NCCC2 [BBA0001006]	–
1	CC(C)(C)OC(=O)NC(CCCCNC(=O)c1ccccn1)C(=O)O (stereo not shown) [BBA0008312]	–
–	C=CCCC(=O)NCC(=O)O [BBA0000592]	More abundant in position 2 in library no. [2]: 1
35	O=C(O)CCCNc1ccccn1 [BBA0000531]	More abundant in position 3 in library no. [2]: 2; share of the chemical entity before the selection [1]: 14%; share of sequences containing the chemical entity after selection [1]: 68%
14	C=CCCC(=O)N[C@@H](C)CC(=O)O [BBA000099, Gly]	building block abundance per position in sequences isolated post selection [3]: dominated; share of the chemical entity before the selection [1]: 4%; share of sequences containing the chemical entity after selection [1]: 27%
–	CC(CCCC(=O)O)Nc1ccccn1 (stereo not shown) [BBA0001401]	More abundant in position 3 in library no. [2]: 2
1	C=CCCC(=O)C(CCC(=O)O)CC1CC1 (stereo not shown) [BBA0001011]	–
5	C=CCCC(=O)NCCCC(=O)O [BBA0004182]	–
–	N[C@H](CC(=O)O)C(=O)O [BBA000152, D-Asp]	More abundant in position 1 in library no. ([2]; building block chosen for Library 3 position 1): 1; More abundant in position 2 in library no. [2]: 2; building block abundance per position in sequences isolated post selection [3]: also found
–	C=CCCC(=O)N1CCCC(C(=O)O)C1 (stereo not shown) [BBA0000832]	More abundant in position 2 in library no. [2]: 1
1	C=CCCC(=O)N1CCC[C@@H]1C(=O)O [BBA000064]	–
47	N[C@@H](CC(=O)O)C(=O)O [BB-A-000098, L-Asp]	More abundant in position 3 in library no. [2]: 1; building block abundance per position in sequences isolated post selection [3]: dominated; share of the chemical entity before the selection [1]: 25%; share of sequences containing the chemical entity after selection [1]: 92%
2	C=CCCC(=O)N1CCCC[C@H]1C(=O)O [BBA0004232]	–
1	C=CCCC(=O)N1CCC[C@H]1C(=O)O [BBA0003142]	–
1	C=CCCC(=O)NCc1cccc(C(=O)O)c1 [BBA0003132]	–
2	C=CCCC(=O)N[C@H]1CC[C@@H](C(=O)O)C1 [BBA0004212]	–
1	C=CCCC(=O)N[C@H]1CCCC[C@H]1C(=O)O [BBA0003152]	–
–	C=CCCC(=O)N[C@@H]1CC[C@H](C(=O)O)C1 [BBA0004222]	More abundant in position 2 in library no. [2]: 2
2	C=CCCC(=O)NCc1ccc(C(=O)O)cc1 [BBA0003172]	–
2	O=C(O)c1csc(-c2cccnc2)n1 [BBA0008512]	–
2	C=CCCC(=O)N(CCC)CCC(=O)O [BBA0001101]	–
